Experimental data from ChEMBL document CHEMBL1149007, “The Ichthyotoxic Principles of Zanthoxylum clava-herculis” (J Nat Prod, 1986).

System: Pimephales promelas
Assay: Ichthyotoxicity in Pimephales promelas assessed as mortality measured every 30 mins for 2 hrs
Assay type: organism-based

`CC(=O)N1CCc2cc3c(c4c2[C@H]1Cc1ccccc1-4)OCO3` showed an IC50 of 300 µM.
